Results as given in PubChem BioAssay AID330 (DTP/NCI, 2004).
Several values for one entry are separate records, joined by “and”; a condition that tells them apart may be missing. Equal values may be shown once. Toxic doses and inconclusive results are not listed.

Tested on: P388 leukemia ip, CD2F1 mice, survival T/C
Assay: NCI In Vivo Anticancer Drug Screen. Data for tumor model P388 Leukemia (intraperitoneal) in CD2F1 (CDF1) mice
Settings: endpoint: median survival time, higher = longer survival
Summary of the method: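 Mice carrying the transplanted tumor received test compound or vehicle. Survival was recorded in each group, and the value is the treated-group measurement divided by that of the vehicle-treated control group.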

[1] = dose: 50.0 mg/kg/injection, schedule: Q01DX009 (ip), vehicle: saline with Tween-80
[2] = dose: 100.0 mg/kg/injection, schedule: Q01DX009 (ip), vehicle: saline with Tween-80
[3] = dose: 50.0 mg/kg/injection, schedule: Q01DX009 (ip), vehicle: saline
[4] = dose: 100.0 mg/kg/injection, schedule: Q01DX009 (ip), vehicle: saline
[5] = dose: 200.0 mg/kg/injection, schedule: Q01DX009 (ip), vehicle: saline
[6] = dose: 50.0 mg/kg/injection, schedule: Q01DX005 (ip), vehicle: Klucel (hydroxypropylcellulose) (HPC)
[7] = dose: 100.0 mg/kg/injection, schedule: Q01DX005 (ip), vehicle: Klucel (hydroxypropylcellulose) (HPC)
[8] = dose: 200.0 mg/kg/injection, schedule: Q01DX005 (ip), vehicle: Klucel (hydroxypropylcellulose) (HPC)
[9] = dose: 60.0 mg/kg/injection, schedule: Q01DX005 (ip), vehicle: Klucel (hydroxypropylcellulose) (HPC)
[10] = dose: 120.0 mg/kg/injection, schedule: Q01DX005 (ip), vehicle: Klucel (hydroxypropylcellulose) (HPC)
[11] = dose: 240.0 mg/kg/injection, schedule: Q01DX005 (ip), vehicle: Klucel (hydroxypropylcellulose) (HPC)
[12] = dose: 100.0 mg/kg/injection, schedule: Q04DX002 (ip), vehicle: Klucel (hydroxypropylcellulose) (HPC)
[13] = dose: 25.0 mg/kg/injection, schedule: Q01DX009 (ip), vehicle: Klucel (hydroxypropylcellulose) (HPC)
[14] = dose: 50.0 mg/kg/injection, schedule: Q01DX009 (ip), vehicle: Klucel (hydroxypropylcellulose) (HPC)
[15] = dose: 200.0 mg/kg/injection, schedule: Q01DX009 (ip), vehicle: saline with Tween-80
[16] = dose: 400.0 mg/kg/injection, schedule: Q01DX009 (ip), vehicle: saline with Tween-80
[17] = dose: 100.0 mg/kg/injection, schedule: Q04DX003 (ip), vehicle: saline with Tween-80
[18] = dose: 200.0 mg/kg/injection, schedule: Q04DX003 (ip), vehicle: saline with Tween-80
[19] = dose: 60.0 mg/kg/injection, schedule: Q01DX005 (ip), vehicle: saline with Tween-80
[20] = dose: 120.0 mg/kg/injection, schedule: Q01DX005 (ip), vehicle: saline with Tween-80
[21] = dose: 240.0 mg/kg/injection, schedule: Q01DX005 (ip), vehicle: saline with Tween-80

SMILES: CCCCCCCCCCSCC(N)C(=O)OCC (stereo not given)
- T/C [1]: 99 % of control
- T/C [2]: 94 % of control

SMILES: O=C(CC(=O)C(F)(F)F)c1cccs1.O=C(CC(=O)C(F)(F)F)c1cccs1.O=C(CC(=O)C(F)(F)F)c1cccs1.[Gd]
- T/C [3]: 96 % of control
- T/C [4]: 96 % of control
- T/C [5]: 99 % of control

SMILES: O=NNc1nc(-c2cccnc2)nc2ccccc12
- T/C (dose: 1.25 mg/kg/injection, schedule: Q01DX009 (ip), vehicle: water): 112 % of control
- T/C (dose: 2.5 mg/kg/injection, schedule: Q01DX009 (ip), vehicle: water): 110 % of control
- T/C (dose: 5.0 mg/kg/injection, schedule: Q01DX009 (ip), vehicle: water): 111 % of control
- T/C (dose: 10.0 mg/kg/injection, schedule: Q01DX009 (ip), vehicle: water): 100 % of control

SMILES: Cc1nc2c(ccc3ccccc32)s1
- T/C [6]: 106 % of control
- T/C [7]: 100 % of control
- T/C [8]: 100 % of control

SMILES: Nc1nc2c(nnn2C2OC(COP(=O)(O)OP(=O)(O)O)C(O)C2O)c(=O)[nH]1 (stereo not given)
- T/C (dose: 12.5 mg/kg/injection, schedule: Q01DX001 (ip), vehicle: saline): 110 % of control
- T/C (dose: 25.0 mg/kg/injection, schedule: Q01DX001 (ip), vehicle: saline): 110 % of control
- T/C (dose: 50.0 mg/kg/injection, schedule: Q01DX001 (ip), vehicle: saline): 116 % of control
- T/C (dose: 100.0 mg/kg/injection, schedule: Q01DX001 (ip), vehicle: saline): 117 % of control

SMILES: Cc1cc2c(cc1C)NC1=C(N2)OC(c2ccc(C3OC4=C(Nc5cc(C)c(C)cc5N4)C3=O)cc2)C1=O (stereo not given)
- T/C [9]: 92 % of control
- T/C [10]: 92 % of control
- T/C [11]: 93 % of control

SMILES: C=C(C)C1CC(=O)C2(C)C(C1)OC(=O)C2C(=O)OCC (stereo not given)
- T/C [12]: 101 % of control
- T/C (dose: 200.0 mg/kg/injection, schedule: Q04DX002 (ip), vehicle: Klucel (hydroxypropylcellulose) (HPC)): 103 % of control and 106 % of control
- T/C (dose: 400.0 mg/kg/injection, schedule: Q04DX002 (ip), vehicle: Klucel (hydroxypropylcellulose) (HPC)): 103 % of control and 104 % of control

SMILES: CC(=O)Nc1ccc(S(=O)(=O)Oc2noc3ccccc23)cc1
- T/C [6]: 108 % of control
- T/C [7]: 96 % of control
- T/C [8]: 102 % of control

SMILES: N#C/C(=C\c1cccs1)C(N)=S
- T/C [3]: 100 % of control
- T/C [4]: 102 % of control
- T/C [5]: 100 % of control

SMILES: c1ccc2sc(SNC3CCCCC3)nc2c1
- T/C [13]: 103 % of control
- T/C (dose: 25.0 mg/kg/injection, schedule: Q04DX002 (ip), vehicle: Klucel (hydroxypropylcellulose) (HPC)): 94 % of control
- T/C [14]: 104 % of control
- T/C (dose: 50.0 mg/kg/injection, schedule: Q04DX002 (ip), vehicle: Klucel (hydroxypropylcellulose) (HPC)): 95 % of control
- T/C (dose: 100.0 mg/kg/injection, schedule: Q01DX009 (ip), vehicle: Klucel (hydroxypropylcellulose) (HPC)): 100 % of control
- T/C [12]: 94 % of control
- T/C (dose: 100.0 mg/kg/injection, schedule: Q04DX002 (ip), vehicle: saline): 101 % of control
- T/C (dose: 200.0 mg/kg/injection, schedule: Q01DX009 (ip), vehicle: Klucel (hydroxypropylcellulose) (HPC)): 101 % of control
- T/C (dose: 200.0 mg/kg/injection, schedule: Q04DX002 (ip), vehicle: saline): 109 % of control
- T/C (dose: 400.0 mg/kg/injection, schedule: Q04DX002 (ip), vehicle: saline): 113 % of control

SMILES: COC(=O)CC(OC)OC
- T/C [2]: 100 % of control
- T/C (dose: 100.0 mg/kg/injection, schedule: Q04DX003 (ip), vehicle: saline): 91 % of control
- T/C [15]: 113 % of control
- T/C (dose: 200.0 mg/kg/injection, schedule: Q04DX003 (ip), vehicle: saline): 91 % of control
- T/C [16]: 113 % of control
- T/C (dose: 400.0 mg/kg/injection, schedule: Q04DX003 (ip), vehicle: saline): 95 % of control

SMILES: CC(=O)Oc1cc2c(cc1Cc1ccc3c(c1)OCO3)OCO2
- T/C [6]: 101 % of control
- T/C [7]: 95 % of control
- T/C [8]: 100 % of control

SMILES: COc1ccc(-c2coc3c4c(ccc3c2=O)OC(C)(C)C=C4)cc1
- T/C (dose: 50.0 mg/kg/injection, schedule: Q01DX005 (ip), vehicle: saline with Tween-80): 101 % of control
- T/C (dose: 100.0 mg/kg/injection, schedule: Q01DX005 (ip), vehicle: saline with Tween-80): 99 % of control
- T/C (dose: 200.0 mg/kg/injection, schedule: Q01DX005 (ip), vehicle: saline with Tween-80): 100 % of control

SMILES: C=CCC(C(C)=O)C(C)=NCCN=C(C)C(CC=C)C(C)=O.[Cu] (stereo not given)
- T/C (dose: 6.25 mg/kg/injection, schedule: Q01DX005 (ip), vehicle: saline with Tween-80): 110 % of control
- T/C (dose: 12.5 mg/kg/injection, schedule: Q01DX005 (ip), vehicle: saline with Tween-80): 96 % of control

SMILES: CC(=O)c1cc(C)[nH]c1C
- T/C (dose: 37.5 mg/kg/injection, schedule: Q01DX009 (ip), vehicle: Klucel (hydroxypropylcellulose) (HPC)): 103 % of control
- T/C [1]: 100 % of control
- T/C (dose: 50.0 mg/kg/injection, schedule: Q04DX003 (ip), vehicle: saline with Tween-80): 100 % of control
- T/C (dose: 75.0 mg/kg/injection, schedule: Q01DX009 (ip), vehicle: Klucel (hydroxypropylcellulose) (HPC)): 103 % of control
- T/C [2]: 113 % of control
- T/C [17]: 109 % of control
- T/C (dose: 150.0 mg/kg/injection, schedule: Q01DX009 (ip), vehicle: Klucel (hydroxypropylcellulose) (HPC)): 103 % of control
- T/C (dose: 150.0 mg/kg/injection, schedule: Q01DX009 (ip), vehicle: saline with Tween-80): 105 % of control
- T/C [15]: 113 % of control
- T/C [18]: 109 % of control

SMILES: CNC(=O)OCCC(OC(=O)NC)C1CCC2C3CCC4CC(OC(=O)c5ccccc5)CCC4(C)C3CCC12C (stereo not given)
- T/C [9]: 107 % of control
- T/C [10]: 98 % of control
- T/C [11]: 93 % of control

SMILES: Cc1ccc(S(=O)(=O)C(=O)N2CCN(C(=O)S(=O)(=O)c3ccc(C)cc3)CC2)cc1
- T/C [1]: 100 % of control
- T/C [2]: 107 % of control
- T/C [15]: 109 % of control

SMILES: CCOCN(COCC)c1ccc(Cl)cc1
- T/C [15]: 164 % of control

SMILES: CC[C@H](CC[C@@H](C)C1CC[C@H]2[C@@H]3CC=C4C[C@@H](OP(=O)(N5CC5)N5CC5)CC[C@]4(C)[C@H]3CC[C@]12C)C(C)C (stereo not given in full)
- T/C [2]: 152 % of control
- T/C [15]: 163 % of control and 171 % of control
- T/C [16]: 98 % of control

SMILES: [Cl][Pt+2][Cl].[NH-]CCC[NH-]
- T/C (dose: 6.25 mg/kg/injection, schedule: Q04DX002 (ip), vehicle: saline): 178 % of control
- T/C (dose: 12.5 mg/kg/injection, schedule: Q04DX002 (ip), vehicle: saline): 183 % of control

SMILES: CCOC(=O)Nc1nc2ccc(NC(C)=O)cc2s1
- T/C (dose: 6.25 mg/kg/injection, schedule: Q01DX009 (ip), vehicle: Klucel (hydroxypropylcellulose) (HPC)): 104 % of control
- T/C (dose: 12.5 mg/kg/injection, schedule: Q01DX009 (ip), vehicle: Klucel (hydroxypropylcellulose) (HPC)): 105 % of control
- T/C [13]: 102 % of control
- T/C [14]: 96 % of control

SMILES: CCN(CC)P1(=O)OC(c2ccccc2)=CCN1c1ccc(OC)cc1 (stereo not given)
- T/C [6]: 102 % of control
- T/C [7]: 110 % of control
- T/C [8]: 103 % of control

SMILES: CN(C)c1ccc2c(c1)Cc1cc(N=C3C=CC(=O)O3)ccc1-2
- T/C [1]: 100 % of control
- T/C [2]: 100 % of control
- T/C [17]: 109 % of control
- T/C [15]: 100 % of control
- T/C [18]: 95 % of control

SMILES: COc1ccc(C(c2cc3c(cc2O)OCO3)N2CCCCC2)cc1 (stereo not given)
- T/C [19]: 114 % of control
- T/C [20]: 112 % of control
- T/C [21]: 121 % of control

SMILES: CCOC(=O)CCCCCNc1nc(Cl)nc(Cl)n1
- T/C [1]: 98 % of control
- T/C [2]: 103 % of control
- T/C [15]: 87 % of control

SMILES: COC(=O)c1nnn(-c2cc(Cl)ccc2Cl)c1C(=O)c1ccc(OC)cc1
- T/C [19]: 95 % of control
- T/C [20]: 100 % of control
- T/C [21]: 89 % of control
